One assay concerns ATF4 luciferase reporter in HEK293T cells. The assay can be described thus: ATF4-Luc assay, HEK293T cells carrying the ATF4 luciferase reporter (in vitro model of VWMD). Format: cell-based. The settings on record: Homo sapiens, HEK-293T, 7 h, read-out: ATF4-Luc EC50. Here is the method: In order to test exemplary compounds of the invention in a cellular context, a stable VWMD cell line was first constructed. The ATF4 reporter was prepared by fusing the human full-length ATF4 5′-UTR (NCBI Accession No. BC022088.2) in front of the firefly luciferase (FLuc) coding sequence lacking the initiator methionine as described in Sidrauski et al (eLife 2013). The construct was used to produce recombinant retroviruses using standard methods and the resulting viral supernatant was used to transduce HEK293T cells, which were then subsequently selected with puromycin to generate a stable cell line.
HEK293T cells carrying the ATF4 luciferase reporter were plated on polylysine coated 384-well plates (Greiner Bio-one) at 30,000 cells per well. Cells were treated the next day with 1 μg/mL tunicamycin and 200 nM of a compound of Formula (I) for 7 hours. Luminescence was measured using One Glo (Promega) as specified by the manufacturer. Cells were maintained in DMEM with L-glutamine supplemented with 10% heat-inactivated FBS (Gibco) and Antibiotic-Antimycotic solution (Gibco).
For the compound `Cc1ccc(OC(=O)NC23CC(NC(=O)COc4ccc(Cl)c(F)c4)(C2)C3)cc1` [Compound 435, 4-methylphenyl {3-[2-(4-chloro-3-fluorophenoxy)acetamido]bicyclo[1.1.1]pentan-1-yl}carbamate], the EC50 fell in the range of 250 to 500000 nM.

The assay is the same for the next values; noted with them: Homo sapiens, HEK-293T; HEK293T ATF4 luciferase reporter cells, 1 μg/mL tunicamycin, 7 hours; read-out: ATF4-Luc EC50.
For the compound `NCc1ccc(OCC(=O)NC23CC(NC(=O)COc4ccc(Cl)c(F)c4)(C2)C3)cn1` [Compound 259, 2-{[6-(aminomethyl)pyridin-3-yl]oxy}-N-{3-[2-(4-chloro-3-fluorophenoxy)acetamido]bicyclo[1.1.1]pentan-1-yl}acetamide], the EC50 is 250 to 500000 nM.
For the compound `O=C(COc1ccc2c(c1)OC(F)(F)O2)NC12CCC(NC(=O)COc3ccc4c(c3)OC(F)(F)O4)(C1)C2` [Compound 391, N,N′-(bicyclo[2.1.1]hexane-1,4-diyl)bis{2-[(2,2-difluoro-2H-1,3-benzodioxol-5-yl)oxy]acetamide}], the EC50 was 250 to 500000 nM.
For the compound `Cc1nc(F)ccc1OCC(=O)NC12CC(NC(=O)COc3ccc(Cl)c(F)c3)(C1)C2` [Compound 249, 2-(4-chloro-3-fluorophenoxy)-N-(3-{2-[(6-fluoro-2-methylpyridin-3-yl)oxy]acetamido}bicyclo[1.1.1]pentan-1-yl)acetamide], the concentration for a half-maximal effect (EC50) lay in the range of 250 to 500000 nM.
Regarding `O=C(COc1ccc(Cl)c(F)c1)NC12CC(NC(=O)Cc3ccc(C(F)(F)F)nc3)(C1)C2` [Compound 342, 2-(4-chloro-3-fluorophenoxy)-N-(3-{2-[6-(trifluoromethyl)pyridin-3-yl]acetamido}bicyclo[1.1.1]pentan-1-yl)acetamide], the EC50 lay in the range of 250 to 500000 nM.
As to `O=C(COc1ccc(Cl)c(F)c1)NC12CC(NC(=O)COc3ccnn3C3CC3)(C1)C2` [Compound 371, 2-(4-chloro-3-fluorophenoxy)-N-(3-{2-[(1-cyclopropyl-1H-pyrazol-5-yl)oxy]acetamido}bicyclo[1.1.1]pentan-1-yl)acetamide], the concentration giving a half-maximal response (EC50) was in the range of 250 to 500000 nM.
As to `O=C(COc1ccc(Cl)c(F)c1)NC12CCC(NC(=O)COc3ccc(C(F)(F)F)nc3)(CC1)[C@@H](F)C2` [Compound 373, 2-(4-chloro-3-fluorophenoxy)-N-[(3S)-3-fluoro-4-(2-{[6-(trifluoromethyl)pyridin-3-yl]oxy}acetamido)bicyclo[2.2.2]octan-1-yl]acetamide], the EC50 lay within 50 to 250 nM.
Consider `Cc1cc(Cl)ncc1OCC(=O)NC12CC(NC(=O)COc3ccc(Cl)c(F)c3)(C1)C2` [Compound 243, 2-(4-chloro-3-fluorophenoxy)-N-(3-{2-[(6-chloro-4-methylpyridin-3-yl)oxy]acetamido}bicyclo[1.1.1]pentan-1-yl)acetamide], for which the EC50 lay within 250 to 500000 nM.
`N#Cc1cccc(COCC(=O)NC23CC(NC(=O)COc4ccc(Cl)c(F)c4)(C2)C3)c1` [Compound 138, 2-(4-chloro-3-fluorophenoxy)-N-(3-{2-[(3-cyanophenyl)methoxy]acetamido}-bicyclo[1.1.1]pentan-1-yl)acetamide]: the EC50 lay within 250 to 500000 nM.
Consider `CCc1cc(C)cc(OCC(=O)NC23CCC(NC(=O)COc4ccc(Cl)c(F)c4)(CC2)C[C@@H]3O)c1` [Compound 494, 2-(4-chloro-3-fluorophenoxy)-N-{(3S)-4-[2-(3-ethyl-5-methylphenoxy)acetamido]-3-hydroxybicyclo[2.2.2]octan-1-yl}acetamide], for which the EC50 was 250 to 500000 nM.
Regarding `O=C(COc1ccc(C(F)F)cc1)NC12CC(NC(=O)COc3ccc(C(F)F)cc3)(C1)C2` [Compound 389, N,N′-(bicyclo[1.1.1]pentane-1,3-diyl)bis{2-[4-(difluoromethyl)phenoxy]acetamide}], the EC50 fell in the range of 250 to 500000 nM.
On to `O=C(COc1ccc(Cl)c(F)c1)NC12CC(NC(=O)OCCCc3cccc(Cl)c3)(C1)C2` [Compound 166, 3-(3-chlorophenyl)propyl {3-[2-(4-chloro-3-fluorophenoxy)acetamido]-bicyclo[1.1.1]pentan-1-yl}carbamate], for which the EC50 was in the range of 250 to 500000 nM.
The same measure, in the same setting: the figure for `N#Cc1ccc(COCC(=O)NC23CC(NC(=O)COc4ccc(Cl)c(F)c4)(C2)C3)cc1` [Compound 139, 2-(4-chloro-3-fluorophenoxy)-N-(3-{2-[(4-cyanophenyl)methoxy]acetamido}-bicyclo[1.1.1]pentan-1-yl)acetamide] is 250 to 500000 nM.
The same measure, in the same setting: then `O=C(CCOCc1cccc(Cl)c1)NC12CC(NC(=O)COc3ccc(Cl)c(F)c3)(C1)C2` [Compound 163, N-{3-[2-(4-chloro-3-fluorophenoxy)acetamido]bicyclo[1.1.1]pentan-1-yl}-3-[(3-chlorophenyl)methoxy]propanamide], with 250 to 500000 nM.
For `CC(O)(c1ccc(OCC(=O)NC23CC(NC(=O)COc4ccc(Cl)c(F)c4)(C2)C3)cc1)C(F)(F)F` (stereo not drawn) [Compound 413, 2-(4-chloro-3-fluorophenoxy)-N-(3-{2-[4-(1,1,1-trifluoro-2-hydroxypropan-2-yl)phenoxy]acetamido}bicyclo[1.1.1]pentan-1-yl)acetamide], the EC50 was 250 to 500000 nM.
On the same count and under the same terms, then `O=C(CCOc1cccc(Cl)c1)NC12CC(NC(=O)COc3ccc(Cl)c(Cl)c3)(C1)C2` [Compound 169, 3-(3-chlorophenoxy)-N-{3-[2-(3,4-dichlorophenoxy)acetamido]bicyclo-[1.1.1]pentan-1-yl}propanamide], with 250 to 500000 nM; and `O=C(/C=C/c1ccc(OC(F)(F)F)cn1)NC12CC(NC(=O)COc3ccc(Cl)c(F)c3)(C1)C2` [Compound 376, (2E)-N-{3-[2-(4-chloro-3-fluorophenoxy)acetamido]bicyclo[1.1.1]pentan-1-yl}-3-[5-(trifluoromethoxy)pyridin-2-yl]prop-2-enamide], with 250 to 500000 nM.
Regarding `N#Cc1cc(OCC(=O)NC23CC(NC(=O)COc4ccc(Cl)c(F)c4)(C2)C3)ccn1` [Compound 277, 2-(4-chloro-3-fluorophenoxy)-N-(3-{2-[(2-cyanopyridin-4-yl)oxy]acetamido}bicyclo[1.1.1]pentan-1-yl)acetamide], the EC50 was 250 to 500000 nM.
Turning to `O=C(COc1ccc(Cl)c(F)c1)NC12CC(NC(=O)CC(=O)c3ccc(Cl)cc3)(C1)C2` [Compound 293, N-{3-[2-(4-chloro-3-fluorophenoxy)acetamido]bicyclo[1.1.1]pentan-1-yl}-3-(4-chlorophenyl)-3-oxopropanamide], the EC50 was 250 to 500000 nM.
For `O=C(COc1ccc(Cl)c(F)c1)NC12CCC(NC(=O)COc3ccc(C(F)(F)F)nc3)(CC1)[C@@H](F)C2` (single isomer, unassigned) [Compound 372], the EC50 fell in the range of 50 to 250 nM.
`O=C(COc1ccc(Cl)c(F)c1)NC12CCC(NC(=O)COc3ccc(C(F)(F)F)nc3)(CC1)[C@H](O)C2` (single isomer, unassigned) [Compound 302]: the EC50 is less than 10 nM.
Still for that read-out and setting: the figure for `O=C(COc1ccc(Cl)c(F)c1)NC12CC(NC(=O)COc3cnc4cc[nH]c4c3)(C1)C2` [Compound 254, 2-(4-chloro-3-fluorophenoxy)-N-(3-{2-[(1H-pyrrolo[3,2-b]pyridin-6-yl)oxy]acetamido}bicyclo[1.1.1]pentan-1-yl)acetamide] is 250 to 500000 nM; for `CC(C)(C)c1ccc(OCC(=O)NC23CCC(NC(=O)COc4ccc(Cl)c(F)c4)(CC2)C[C@@H]3O)cc1` [Compound 506, 2-(4-tert-butylphenoxy)-N-{(2S)-4-[2-(4-chloro-3-fluorophenoxy)acetamido]-2-hydroxybicyclo[2.2.2]octan-1-yl}acetamide] it is 250 to 500000 nM; for `COc1cc(OC)nc(OCC(=O)NC23CCC(NC(=O)COc4ccc(Cl)c(F)c4)(CC2)C[C@@H]3O)n1` [Compound 498, 2-(4-chloro-3-fluorophenoxy)-N-[(3S)-4-{2-[(4,6-dimethoxypyrimidin-2-yl)oxy]acetamido}-3-hydroxybicyclo[2.2.2]octan-1-yl]acetamide] it is 250 to 500000 nM.
The same measure, in the same setting: the figure for `O=C(COc1ccc(Cl)c(F)c1)NC12CCC(NCCOc3ccc(Cl)c(Cl)c3)(CC1)CC2O` (stereo not drawn) [Compound 337, 2-(4-chloro-3-fluorophenoxy)-N-(4-{[2-(3,4-dichlorophenoxy)ethyl]amino}-2-hydroxybicyclo[2.2.2]octan-1-yl)acetamide] is less than 10 nM.
Consider `Cc1ccc(COCC(=O)NC23CC(NC(=O)COc4ccc(Cl)c(F)c4)(C2)C3)cc1` [Compound 144, 2-(4-chloro-3-fluorophenoxy)-N-(3-{2-[(4-methylphenyl)methoxy]acetamido}-bicyclo[1.1.1]pentan-1-yl)acetamide], for which the EC50 is 250 to 500000 nM.
As for `O=C(CCn1ncc(Cl)cc1=O)NC12CC(NC(=O)COc3ccc(Cl)c(F)c3)(C1)C2` [Compound 104, N-{3-[2-(4-chloro-3-fluorophenoxy)acetamido]bicyclo[1.1.1]pentan-1-yl}-3-(4-chloro-6-oxopyridazin-1(6H)-yl)propanamide], the EC50 fell in the range of 250 to 500000 nM.
On to `Cc1cccc(CCOCC(=O)NC23CC(NC(=O)COc4ccc(Cl)c(F)c4)(C2)C3)c1` [Compound 136, 2-(4-chloro-3-fluorophenoxy)-N-(3-{2-[2-(3-methylphenyl)ethoxy]acetamido}-bicyclo[1.1.1]pentan-1-yl)acetamide], for which the EC50 lay within 250 to 500000 nM.
The same measure, in the same setting: the figure for `O=C(COc1ccc(Cl)c(Cl)c1)NC12CC(NC(=O)OCCCc3cccc(Cl)c3)(C1)C2` [Compound 174, 3-(3-chlorophenyl)propyl {3-[2-(3,4-dichlorophenoxy)acetamido]-bicyclo[1.1.1]pentan-1-yl}carbamate] is 250 to 500000 nM; for `Cc1ccc(CCOCC(=O)NC23CC(NC(=O)COc4ccc(Cl)c(Cl)c4)(C2)C3)cc1` [Compound 154, 2-(3,4-dichlorophenoxy)-N-(3-{2-[2-(4-methylphenyl)ethoxy]acetamido}-bicyclo[1.1.1]pentan-1-yl)acetamide] it is 250 to 500000 nM.

The values are drawn from patent US20250122188A1, “MODULATORS OF THE INTEGRATED STRESS PATHWAY” (Calico Life Sciences LLC, priority 2016, published 2025).
